Common to all, as to test: NCI-60 cell line screen, 48 h
The subject of assay [1] is 786-0.
Assay [2] relates to A498.
The subject of assay [3] is A549.
For assay [4], the system named is COLO 205.
For assay [5], the system named is HCC 2998.
Assay [6] relates to HCT-15.
The test system of assay [7] is HT-29.
The subject of assay [8] is IGROV-1.
Assay [9] deals with MDA-MB-231.
The test system of assay [10] is MOLT-4.
The subject of assay [11] is Malme-3M.
The subject of assay [12] is NCI-H226.
Assay [13] concerns RPMI-8226.
For assay [14], the system named is SF-268.
The subject of assay [15] is SF-295.
Assay [16] relates to SF-539.
In assay [17] the test system is SK-MEL-28.
Assay [18] deals with SK-MEL-2.
Assay [19] relates to SNB-19.
In assay [20] the test system is UACC-257.

SMILES strings stand for the structures.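 Test compounds were applied to cells in 96-well plates for 48 hours at 5 doses. Here, GI50 denotes the concentration required for 50% inhibition of growth.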 The source made the active and inactive calls. Cut-off read from the data, not from the text of the source: active = GI50 up to about 1.1 µM and inactive = higher.

As to `NC1=NN(c2ccccc2)C2(c3ccncc3C(=O)O)C1C(N)=NN2c1ccccc1` (configuration not stated), the GI50 is > 100 µM (inactive) in assay [1]; > 100 µM (inactive) in assay [2]; > 100 µM (inactive) in [3]; > 100 µM (inactive) in assay [4]; > 100 µM (inactive) in assay [5]; over 100 µM in [6]. The GI50 in assay [7], in [8], in assay [9], in assay [10], in assay [11] and in assay [12] was > 100 µM (inactive) each time. For the same molecule, the GI50 in [13], in assay [14], in assay [15], in assay [16], in assay [17] and in assay [18] was > 100 µM (inactive) throughout. Also, the GI50 in assay [19] and in [20] was > 100 µM (inactive) throughout.
In the case of `CCN(CC)C(=S)SC1CCOP(=O)(N(CCCl)CCCl)N1C` (configuration not stated), the GI50 was 41.2 µM (inactive) in assay [1]; 44.9 µM (inactive) in [2]; 0.553 µM (active) in assay [4]; 33.4 µM (inactive) in assay [5]; 28.2 µM in [6]; 1.99 µM (inactive) in assay [7]. In addition, the GI50 in assay [8] is 4.34 µM (inactive); in assay [9], > 100 µM (inactive); in [10] it was 0.439 µM (active); in assay [11] it was 27.5 µM (inactive); in assay [12] it was 48.3 µM (inactive); in assay [13] it was 1.34 µM (inactive). The GI50 is > 50.7 µM (inactive) in assay [14]; 55.6 µM (inactive) in assay [15]; 33.4 µM (inactive) in [16]; 26.9 µM (inactive) in [17]; 20.5 µM (inactive) in [18]; > 92.9 µM (inactive) in [19]. Moreover, the GI50 in [20] was > 40.9 µM (inactive).
Take `C=C(C)C(=O)/N=C(\N)NC#N`: the GI50 was 37.8 µM (inactive) in assay [1]; > 46.5 µM (inactive) in assay [2]; 168 µM (inactive) in assay [3]; 49.2 µM (inactive) in assay [4]; 132 µM (inactive) in assay [5]; 44.6 µM in assay [6]. In addition, the GI50 in assay [7] is 62.8 µM (inactive); in assay [8], > 46.9 µM (inactive); in assay [9], 48.2 µM (inactive); in [11], 24.8 µM (inactive); in assay [12], 145 µM (inactive); in [13], 10.6 µM (inactive). Also, the GI50 in [14] is 27.1 µM (inactive); in assay [15], > 90.2 µM (inactive); in assay [16], 34.8 µM (inactive); in assay [17], 28.9 µM (inactive); in [18], 47.2 µM (inactive); in assay [19], 182 µM (inactive). Moreover, the GI50 in [20] was 29.9 µM (inactive).
For `CC1=C(C#N)C2C(=C(N)Oc3ccccc32)C(N)=N1` (configuration not stated), the GI50 in assay [1] was 20.4 µM (inactive); in assay [2], 24 µM (inactive); in [3] it was 38.3 µM (inactive); in assay [4], 26.1 µM (inactive); in assay [5], 29.4 µM (inactive); in [6] it was 17.9 µM. In addition, the GI50 is 27.2 µM (inactive) in assay [7]; 25.4 µM (inactive) in [8]; 14 µM (inactive) in assay [9]; 75 µM (inactive) in assay [10]; 16 µM (inactive) in [11]; 12.2 µM (inactive) in assay [12]. Also, the GI50 in [13] was 24 µM (inactive); in assay [14], 24.5 µM (inactive); in assay [15], 26.9 µM (inactive); in [16], 30.1 µM (inactive); in assay [18], 20.1 µM (inactive); in [19] it was 21.8 µM (inactive). In addition, in assay [20], the GI50 is 20.1 µM (inactive).
